# Measurements: the supplement of paper PMC10307832
# How the values were obtained:
# Assay in all cases: relative viability (nuclei count vs DMSO), 5 days (fraction); higher = more cells survive
# [1] = compound: C[C@@H](N)c1ccc(C(=O)Nc2ccnc3[nH]ccc23)cc1 + CC(C)C[C@H](NC(=O)[C@H](Cc1ccccc1)NC(=O)c1cnccn1)B(O)O [Bortezomib] (partner 0.002 µM)
# Summary of the method: (§1)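 A single step with final 0.05% Triton X-100, 1% formaldehyde and 1 ug/ml Hoechst fixed the cells and stained nuclei 5 days after treatment. Lung cancer cell lines in 1536-well plates had been treated by pin tool the day after seeding with one drug alone or a fixed anchor-drug dose plus five library-drug doses (not always all listed) in √10 steps, and nuclei were counted on 4× images. Relative viability is the ratio of nuclei in treated wells to nuclei in vehicle wells, taken as the median of duplicate plates.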
# [2] = compound: C[C@@H](N)c1ccc(C(=O)Nc2ccnc3[nH]ccc23)cc1 + O=C(c1cc(Cc2n[nH]c(=O)c3ccccc23)ccc1F)N1CCN(C(=O)C2CC2)CC1 [Olaparib] (partner 8 µM)
# Summary of the method: as §1
# [3] = compound: C[C@@H](N)c1ccc(C(=O)Nc2ccnc3[nH]ccc23)cc1 + C[C@]1(O)C[C@@H](c2nc(-c3ccc4ccc(-c5ccccc5)nc4c3)c3c(N)nccn32)C1 [Linsitinib] (partner 1 µM)
# Summary of the method: as §1
# Tanzisertib + Crizotinib = compound: O[C@H]1CC[C@H](Nc2ncc3nc(Nc4c(F)cc(F)cc4F)n([C@H]4CCOC4)c3n2)CC1 [Tanzisertib] + C[C@@H](Oc1cc(-c2cnn(C3CCNCC3)c2)cnc1N)c1c(Cl)ccc(F)c1Cl [Crizotinib] (partner 1 µM)
# Summary of the method: as §1
cell line,measurement,setting,value
UMC-11,relative viability,[1]; first compound 0.04 µM,0.669
same,relative viability,[1]; first compound 0.1265 µM,0.717
same,relative viability,[1]; first compound 0.4 µM,0.768
same,relative viability,[1]; first compound 1.265 µM,0.286
same,relative viability,[1]; first compound 4 µM,0.415
same,relative viability,[2]; first compound 0.04 µM,0.359
same,relative viability,[2]; first compound 0.1265 µM,0.427
same,relative viability,[2]; first compound 0.4 µM,0.357
same,relative viability,[2]; first compound 1.265 µM,0.303
same,relative viability,[2]; first compound 4 µM,0.285
same,relative viability,[3]; first compound 0.04 µM,1.02
same,relative viability,[3]; first compound 0.1265 µM,1.09
same,relative viability,[3]; first compound 0.4 µM,1.06
same,relative viability,[3]; first compound 1.265 µM,0.958
same,relative viability,[3]; first compound 4 µM,0.641
same,relative viability,Tanzisertib + Crizotinib; first compound 0.08 µM,0.654
same,relative viability,Tanzisertib + Crizotinib; first compound 0.253 µM,0.703
same,relative viability,Tanzisertib + Crizotinib; first compound 0.8 µM,0.631
same,relative viability,Tanzisertib + Crizotinib; first compound 2.53 µM,0.687
same,relative viability,Tanzisertib + Crizotinib; first compound 8 µM,0.675
